Earlier results in patent publication US20170002035A1, “NOVEL CRYSTALLINE FORMS OF AN ANTIVIRAL BENZIMIDAZOLE COMPOUND” (GlaxoSmithKline LLC, priority 1998, published 2017).

Conditions: amorphous material as disclosed in WO96/01833

- hygroscopicity: hygroscopic
SMILES: CC(C)Nc1nc2cc(Cl)c(Cl)cc2n1[C@H]1O[C@@H](CO)[C@H](O)[C@@H]1O [Form 1263W94, 5,6-dichloro-2-(isopropylamino)-1-(β-L-ribofuranosyl)-1H-benzimidazole]
